# Activity calls are given as the source filed them.
# What was measured:
# [1] = molecular target: T1, Replicative DNA helicase DnaB (Mycobacterium tuberculosis, UniProt P9WMR3); assay: DnaB intein splicing inhibitors, dose response, biochemical, cell-free fluorescence (AID 449749); assay type: functional
# T1 sequence (P9WMR3 whole entry): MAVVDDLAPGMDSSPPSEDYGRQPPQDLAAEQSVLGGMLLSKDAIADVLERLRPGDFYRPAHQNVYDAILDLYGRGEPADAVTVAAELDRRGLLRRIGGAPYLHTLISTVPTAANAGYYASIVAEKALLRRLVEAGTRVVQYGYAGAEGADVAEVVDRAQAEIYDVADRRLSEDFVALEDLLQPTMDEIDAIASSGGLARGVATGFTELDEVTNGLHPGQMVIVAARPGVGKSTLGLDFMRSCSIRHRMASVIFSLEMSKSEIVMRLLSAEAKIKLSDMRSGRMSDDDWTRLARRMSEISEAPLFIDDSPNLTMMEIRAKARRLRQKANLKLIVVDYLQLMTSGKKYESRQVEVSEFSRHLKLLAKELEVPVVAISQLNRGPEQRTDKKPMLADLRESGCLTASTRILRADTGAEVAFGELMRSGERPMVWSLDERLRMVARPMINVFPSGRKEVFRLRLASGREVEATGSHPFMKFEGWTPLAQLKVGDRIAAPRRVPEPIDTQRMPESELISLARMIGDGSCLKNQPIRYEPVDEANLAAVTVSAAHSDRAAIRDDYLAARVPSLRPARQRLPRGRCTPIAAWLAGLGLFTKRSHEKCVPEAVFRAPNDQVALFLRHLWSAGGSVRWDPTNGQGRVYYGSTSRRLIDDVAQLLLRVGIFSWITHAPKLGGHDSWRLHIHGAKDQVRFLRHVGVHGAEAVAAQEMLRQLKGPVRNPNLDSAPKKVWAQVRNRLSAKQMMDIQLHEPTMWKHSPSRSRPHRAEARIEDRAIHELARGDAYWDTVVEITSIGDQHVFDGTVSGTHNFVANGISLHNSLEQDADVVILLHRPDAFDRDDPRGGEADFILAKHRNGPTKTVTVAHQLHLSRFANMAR
# Protein RecA = molecular target: T2, Protein RecA (Mycobacterium tuberculosis, UniProt P9WHJ3); assay: Fluorescence Cell-Free Homogeneous Dose Retest to Identify Inhibitors of RecA-Intein Splicing Activity. [Related pubchem assays (depositor defined):AID2097, AID2223, AID489010, AID492950]; assay type: functional
# T2 sequence (P9WHJ3 whole entry): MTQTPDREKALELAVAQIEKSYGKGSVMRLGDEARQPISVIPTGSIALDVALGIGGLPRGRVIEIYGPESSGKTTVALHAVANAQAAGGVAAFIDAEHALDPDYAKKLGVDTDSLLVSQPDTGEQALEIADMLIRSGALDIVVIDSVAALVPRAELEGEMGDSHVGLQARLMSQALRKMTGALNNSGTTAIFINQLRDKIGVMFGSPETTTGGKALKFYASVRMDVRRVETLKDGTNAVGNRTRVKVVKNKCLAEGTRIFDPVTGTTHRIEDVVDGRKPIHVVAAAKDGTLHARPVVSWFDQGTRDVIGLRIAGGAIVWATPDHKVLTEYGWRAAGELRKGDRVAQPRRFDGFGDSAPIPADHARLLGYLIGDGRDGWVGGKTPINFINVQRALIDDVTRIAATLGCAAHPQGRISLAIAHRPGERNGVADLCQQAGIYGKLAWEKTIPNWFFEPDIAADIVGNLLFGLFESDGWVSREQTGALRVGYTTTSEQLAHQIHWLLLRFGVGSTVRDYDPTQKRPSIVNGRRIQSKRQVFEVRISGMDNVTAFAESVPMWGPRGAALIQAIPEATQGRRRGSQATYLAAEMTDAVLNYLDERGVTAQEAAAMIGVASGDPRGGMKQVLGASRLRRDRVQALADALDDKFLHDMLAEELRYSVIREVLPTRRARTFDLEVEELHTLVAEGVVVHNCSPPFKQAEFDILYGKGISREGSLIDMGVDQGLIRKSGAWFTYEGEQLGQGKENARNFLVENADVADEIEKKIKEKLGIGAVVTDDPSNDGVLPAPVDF
# [2] = molecular target: T3, DNA repair protein RAD52 homolog (Homo sapiens, UniProt P43351); assay type: functional, biochemical
# T3 sequence (P43351 whole entry): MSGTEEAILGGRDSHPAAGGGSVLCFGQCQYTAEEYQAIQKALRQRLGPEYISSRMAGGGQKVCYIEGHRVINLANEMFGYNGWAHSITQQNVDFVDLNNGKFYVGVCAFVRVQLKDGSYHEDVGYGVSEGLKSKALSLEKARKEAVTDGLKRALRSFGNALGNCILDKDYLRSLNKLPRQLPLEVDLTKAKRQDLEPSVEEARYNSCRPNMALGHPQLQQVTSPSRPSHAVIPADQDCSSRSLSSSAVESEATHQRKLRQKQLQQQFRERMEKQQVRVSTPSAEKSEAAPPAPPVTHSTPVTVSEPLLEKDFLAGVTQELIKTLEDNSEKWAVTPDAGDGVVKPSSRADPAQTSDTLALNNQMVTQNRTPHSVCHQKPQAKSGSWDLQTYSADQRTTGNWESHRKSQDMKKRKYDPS
# Cryptococcus neoformans = assay: PubChem AID 686997; assay type: functional, organism-based
# Caspase-3 = molecular target: T4, Caspase-3 (Homo sapiens, UniProt P42574); assay type: functional;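 further: Dose-response selectivity test against caspase-3 for candidate inhibitors of sentrin-specific proteases (SENPs)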
# T4 sequence (P42574 whole entry): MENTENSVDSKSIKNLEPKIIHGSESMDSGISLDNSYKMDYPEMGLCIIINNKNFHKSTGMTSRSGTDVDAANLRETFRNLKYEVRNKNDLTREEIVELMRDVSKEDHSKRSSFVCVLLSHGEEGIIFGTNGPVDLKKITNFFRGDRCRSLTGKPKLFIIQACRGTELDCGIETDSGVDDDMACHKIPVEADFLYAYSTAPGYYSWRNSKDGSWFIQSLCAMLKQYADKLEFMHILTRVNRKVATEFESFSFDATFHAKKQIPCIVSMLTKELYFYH
Compound,AC50 [1],EC50 (Protein RecA),AC50 [2],AC50 (Cryptococcus neoformans),IC50 (Caspase-3)
CC(C)[n+]1ccn(C2=C([N-]S(=O)(=O)c3ccccc3)C(=O)c3ccccc3C2=O)c1,12.3 µM (active),12 µM (active),,,
CCCCCCCCCCOC(=O)Cn1c(COc2ccccc2)[n+](C)c2ccccc21,3.6 µM (active),9.4 µM (active),12.5 µM (active),,
CCOC(=O)c1c(-c2ccc(-c3ccccc3)cc2)csc1NC(=O)CNCCN(C)C,,,5.29 µM (active),20.9 µM (active),
N#Cc1c(NC(=O)c2ccc(Br)o2)n(-c2ccccc2)c2nc3ccccc3nc12,,,,,29.6 µM (active)

# Reference: ChEMBL document CHEMBL1201862, “PubChem BioAssay data set” (2004)
